Results taken from US6995136B1, “Peptide fragments of murine epidermal growth factor as laminin receptor targets” (The Queen's University of Belfast, priority 1998, dated 2006).
Non-standard residues stand in square brackets, D forms with d. Residues, ends and D or L forms follow the SMILES beside them. No end group written: not given here. *: point of attachment. Tic‑OH = tetrahydroisoquinoline-3-carboxylic acid (hydroxy-substituted), constrained Tyr mimetic; Cit = NC(=O)NCCC[C@H](N)C(=O)O; Acm = CC(=O)NC*

Experiments:
[1] = system: cell attachment to laminin through the 67-LR (T-47D, SK HEP-1); assay: Laminin attachment assay; assay type: cell-based, human; conditions: relative to mEGF(33-42)
Protocol: Non-tissue culture grade 96-well plates, coated with 2.5 μg murine laminin in 50 μl CFS per well, were air-dried overnight at room temperature. […] After rinsing with CFS (100 μl), the plastic was saturated with casein (0.2% in CFS). Plates were incubated at room temperature for 45 min then washed extensively with CFS (3×100 μl).
After removal of culture media, cells were detached from monolayers by the action of EGTA (0.02% in CFS) at 37° C. The cells were then centrifuged at 800 g for 2 min and the pellet resuspended in DMEM (T-47D) or RPMI (SK HEP-1).
Cells, at a population density of 10^6 cells/ml, were then aliquoted (1 ml) into microfuge tubes containing the individual peptide sequences and incubated for 1 h at 37° C. The cells (100 μl aliquots) were then added to the pre-coated multi-well plates and incubated for a further 60 min. Incubation media were removed and the wells washed with CFS (3×100 μl) to rid the plates of non-adherent cells.
Attached cell numbers were evaluated spectrophotometrically at 620 nm after fixing with 10% formaldehyde and staining with crystal violet.
(§1) IC50 (concentration of unlabelled peptide required to produce 50% inhibition of radioligand binding) and EC50 (effective concentration for 50% inhibition of cell attachment) values were calculated using the Grafit curve-fitting programme (Erithacus Software, London, UK).

[2] = target: T1, 67 kDa laminin receptor (67-LR) (Homo sapiens, UniProt P08865); assay: 125I-laminin displacement (competition binding) on T47-D or SK HEP-1 cells; conditions: relative to mEGF(33-42); 0.1 nM 125I-laminin, overnight 4° C.
T1 construct: endogenous in cells; host or cells: T47-D or SK HEP-1 cells (whole-cell suspension)
Protocol: ^125I-laminin was prepared using ^125I-labelled sodium iodide (Amersham, UK) and immobilised chloramine-T (Iodobeads; Pierce, Ill.). Prior to use, the beads were washed with 500 μl phosphate buffer (pH 6.5) to remove excess reagent from the support. These were then allowed to air dry and individual beads added to a solution of carrier free Na^125I, diluted with iodination buffer (phosphate buffer pH 7.4). The beads were allowed to equilibrate for 5 min.
Laminin (10 μg in 10 μl) was then diluted into the iodination buffer and the system incubated at 20° C. for 15 min. The solution was then removed from the reaction vessel and excess Na^125I and unincorporated ^125I2 separated from the iodinated protein by gel filtration on a GF-5 exclusion column (Pierce, Ill.). Iodinated laminin fractions were recovered at a specific activity of approximately 1.2 mCi/mg protein (864 Ci/mmol).
Near confluent cultures of T47-D or SK HEP-1 cells were removed from monolayer with 0.02% EGTA and passed through a G-25 syringe needle to produce single cell suspensions. Aliquots of each cell type (10^6 cells/ml) were dispensed into separate Ependorf tubes (1 ml each) and pelleted. The cells were then resuspended in 1 ml ice-cold RPMI (SK HEP-1) or DMEM (T47-D) containing 0.1% BSA and either laminin or synthetic peptide at the concentrations indicated. Iodinated laminin was then added to each cell suspension to give a final ^125I-laminin concentration of 0.1 nM (approximately 50,000 cpm). These mixtures were incubated overnight at 4° C.
The tubes were then microfuged at 10,000 g and the supernatant removed. After washing the pellet with 500 μl CFS, the remaining radioactivity was determined using a gamma radiation counter. Non-specific binding was determined by incubating cells with a 1000-fold molar excess of unlabelled laminin. All estimations were carried out in triplicate.
as §1

67-LR = target: T2, 67-LR (Homo sapiens, UniProt P08865); assay: Peptide screening for receptor interaction, cell adhesion and motility properties; assay type: cell-based
T2 construct: endogenous in cells
Source text: In addition, using residue exchange between the two peptides and molecular modelling to predict three-dimensional structure, we wished to further investigate the role of individual mEGF(33-42) residues in laminin antagonism. A logical series of peptides was synthesised and screened for receptor interaction, cell adhesion and motility properties (Table 1a and 1b).

[3] = system: Endothelial cells (SK HEP-1 and BRCE); assay: Migration assay (colloidal gold track area); assay type: cell-based; conditions: endothelial cells, 18 h
Protocol: The method used was basically as described by Albrecht-Buehler (1977). Briefly, coverslips (22×22 mm) were treated in 5% detergent (7×; ICN Biomedicals) and washed in alcohol to remove grease. After drying, they were immersed in gelatin solution (Sigma, 300 Bloom; 0.5 g in 300 ml distilled H2O) for 10 min. The coverslips were then dried by placing in a 70° C. oven for 45 min.
Colloidal gold suspension was prepared by adding 11 ml distilled H2O and 6 ml Na2CO3 (36.5 mM) to 1.8 ml AuHCl4 (14.5 mM). The mixture was heated to 95° C. at which point 1.8 ml of freshly prepared 0.1% formaldehyde solution was added; the temperature was maintained at 95° C. A suspension of colloidal gold was formed which was brown to absorbed light and blue to transmitted light.
The gold suspension, was then added to petri dishes containing individual coverslips and the plates incubated at 37° C. for 45 min. After washing with CFS (3×4 ml) to remove unattached gold particles, the coverslips were transferred to 6-well cluster dishes and UV sterilised.
Endothelial cells (SK HEP-1 and BRCE) in culture media (0.3 ml) were seeded onto the coverslips at an approximate density of 5×10^3 cells per well. The cells were allowed to plate down for 2 h at 37° C. after which the treatments were added. Assay systems were maintained for a further 18 h after which the cells were fixed using 3% gluteraldehyde in cacodylate buffer (pH 7.2).
The assays were examined using a Leica DM1RB phase contrast microscope and Q500MC image analysis system incorporating a JVC TK-1280E colour camera (Leica, Milton Keynes, UK). The track images of at least 30 cells were videocaptured and the area (representing migration response) determined for each. Statistical analysis of these areas was then carried out using Macintosh Instat software to perform both Kruskal-Wallis analysis of variance and Mann-Whitney U-tests in order to compare the treatment groups with controls.

trypsin-like proteases = assay: Resistance to trypsin degradation; assay type: in vitro ADME
[4] = system: angiogenesis in the chick; assay: Chick angiogenesis model; assay type: in vivo; conditions: laminin-stimulated; model not stated at the place (Nelson et al 1995)
[5] = system: Endothelial cells (SK HEP-1 and BRCE); conditions: shown previously; cited from earlier work
67 kDa laminin receptor = target: T3, 67 kDa laminin receptor (Homo sapiens, UniProt P08865); assay: Cell attachment to biotinylated mEGF(33-42) with anti-laminin receptor or anti-EGF receptor antibodies; assay type: cell-based
T3 construct: endogenous in cells
Protocol: Briefly, 96-well plates were coated with 100 μl/well streptavidin (5 μg/ml in carbonate buffer pH 9.6) and following an overnight incubation at 37° C., wells were washed with CFS (3×100 μl) and the plastic blocked with casein (0.2% in CFS). The plates were then incubated at room temperature for 45 min and washed with CFS as previously detailed. Biotinylated mEGF(33-42) in CFS was then aliquoted into the wells (0.1 ml of 100 μM) and the plates incubated for 3 h at 37° C.
After a further block with 0.2% casein, the wells were washed with CFS (3×100 μl aliquots). Plates were kept at 4° C. and used within 2 h.
Cells were prepared as above and pre-incubated for 1 h at 37° C. with serial dilutions of anti-laminin receptor polyclonal (see below) or anti-EGF (R1) receptor monoclonal antibodies. Subsequent procedures were as detailed for the laminin attachment assay.

[6] = system: angiogenesis in the chick; conditions: shown previously; cited from earlier work

receptor affinity, 125I-laminin displacement (IC50), in words [2]	Molecule	inhibition of cell attachment (adhesion) to laminin (EC50), in words [1]	migration (motility) response: laminin agonist or antagonist [3]	also measured
dramatic decrease in receptor affinity	CVIGYAGDRC [X, alanine scan of mEGF(33-42): Ala for Ser (P6)]	parallel decrease in their ability to block adhesion to laminin	–	–
equipotent	laminin	–	–	–
dramatic decrease in receptor affinity	CAIGYSGDRC [peptide VII, alanine scan of mEGF(33-42): Ala for Val]	parallel decrease in their ability to block adhesion to laminin	–	–
equipotent	Acetyl-C-[S-Acm]-VIGYSGDR-C-[S-Acm]NH2 (Ac-C(Acm)VIGYSGDRC(Acm)-NH2) [mEGF(33-42), capped synthetic peptide of residues 33 to 42 of murine epidermal growth factor, 67LR antagonist]	–	antagonist	angiogenic effects of laminin [4]: inhibits the angiogenic effects of laminin; basal and EGF-stimulated motility of primary and established endothelial cells [5]: blocking the basal and EGF-stimulated motility; receptor that mediates the anti-angiogenic effects (67 kDa laminin receptor; 67-LR versus EGF receptor): mediated solely through the high affinity 67 kDa laminin receptor (67-LR) and not through the EGF receptor; binding to the 67 kDa laminin receptor (67 kDa laminin receptor; biotinylated derivative of the peptide on streptavidin plates): bound to the 67 kDa laminin receptor; EGF-stimulated angiogenic response in the early chick [6]: inhibit the EGF-stimulated angiogenic response

Second part, the molecule before the results:

Molecule	receptor affinity, 125I-laminin displacement (IC50), in words [2]	inhibition of cell attachment (adhesion) to laminin (EC50), in words [1]	migration (motility) response: laminin agonist or antagonist [3]	also measured
CVAGYSGDRC [peptide VI, alanine scan of mEGF(33-42): Ala for Ile]	dramatic decrease in receptor affinity	parallel decrease in their ability to block adhesion to laminin	–	–
peptide III: mEGF(33-42) analogue with both isoleucine (P6) for serine and serine (P8) for aspartate (CVIGYIGSRC)	–	–	–	biological function (receptor binding, adhesion, motility) (67-LR): complete loss of biological function
CVIGYSGDRA [peptide IX, alanine scan of mEGF(33-42): alanine for cysteine at P10]	retains both receptor binding and adhesion displacing activities	retains both receptor binding and adhesion displacing activities	has the agonism of Lam.β-1(925-933)	–
CC[C@H](C)[C@H](NC(=O)[C@@H](NC(=O)[C@H](CSCNC(C)=O)NC(C)=O)C(C)C)C(=O)NCC(=O)N[C@@H](Cc1ccc(O)cc1)C(=O)N[C@@H](CO)C(=O)NCC(=O)N[C@@H](CC(=O)O)C(=O)N[C@@H](CCCNC(N)=O)C(=O)N[C@@H](CSCNC(C)=O)C(N)=O [peptide IV, AcC(Acm)-VIGYSGD-[Cit]-C-(Acm)-NH2] (Ac-C(Acm)VIGYSGD[Cit]C(Acm)-NH2)	increased both receptor binding and inhibition of attachment to laminin substrata	–	–	resistance to trypsin / trypsin-like proteases (trypsin-like proteases): resistant to cleavage by trypsin-like proteases
peptide II: mEGF(33-42) analogue, aspartate (P8) replaced with serine (CVIGYSGSRC)	–	–	–	biological function (receptor binding, adhesion, motility) (67-LR): complete loss of biological function
peptide V: mEGF(33-42) analogue, tyrosine (P5) substituted with Tic-OH (CVIG[Tic‑OH]SGDRC; cysteine pairing not given here)	both receptor binding and adhesion responses were retained	both receptor binding and adhesion responses were retained	agonist	–
AVIGYSGDRC [peptide VIII, alanine scan of mEGF(33-42): alanine for cysteine (P1)]	dramatic decrease in receptor affinity	parallel decrease in their ability to block adhesion to laminin	weak laminin agonist	–
mEGF(33-42) analogue, isoleucine (P6) for serine; acetyl-Cys(ACM)-Val-Ile-Gly-Tyr-Ile-Gly-Asp-Arg-Cys(ACM)-NH2 (Ac-C(Acm)VIGYIGDRC(Acm)-NH2; SMILES CC[C@H](C)[C@H](NC(=O)[C@H](Cc1ccc(O)cc1)NC(=O)CNC(=O)[C@@H](NC(=O)[C@@H](NC(=O)[C@H](CSCNC(C)=O)NC(C)=O)C(C)C)[C@@H](C)CC)C(=O)NCC(=O)N[C@@H](CC(=O)O)C(=O)N[C@@H](CCCNC(=N)N)C(=O)N[C@@H](CSCNC(C)=O)C(N)=O) [peptide I]	reduced receptor affinity	both reduced receptor affinity and potency in displacement of cell adhesion to laminin	weak antagonist activities	–
